The subject of experiment [1] is TGFbeta-induced secreted collagen synthesis in L929 cells. The experiment is described as follows: TGFbeta-induced secreted collagen in L929 cells (anti-collagen type I ELISA). The class given is cell-based. The settings on record: 50 micromole CP1, 5 ng/ml Mouse TGFβ2, 72 hours, culture supernatant, FIG. 3. From the text:
(§1) The present invention is about novel compounds which may offer alternative treatment options against IPF, which believed to develop as a consequences of smoking, pollution, allergens, toxins and seen in people who are older than 50 years old. The compounds mentioned in this application have been generated from “6,7-dimethoxy 2H-chromen-one (1), which was identified from local medicinal plants during our screening studies. The anti-fibrotic activity of this compound (“6,7-dimethoxy 2H-chromen-one (I) against TGF beta-induced collagen synthesis using 1.929 cells has been identified. For this, in 96-well plates, 1.929 cells were cultured in DMEM supplemented with % 10 serum, 10 μg/ml ascorbic acid and 20 μM prolin until they reached to confluency. Confluent cells were treated with 50 micromole of our compound (named as CP1) dissolved in DMSO for 1 hour, then 5 ng/ml of Mouse TGFβ2 was added and cells were further incubated for 72 hours at incubator supplied with 5% CO2 and 80% humidity. At the end of this incubation one of the plate was used to determine cell viability by using MTT test, FIG. 2. The second 96-well plate was used to determine the level of total collagen. […] Absorbance of developed color was determined at 600 nm. […] In addition to total collagen, we also determined the level of “secreted collagen” by using ELISA. […]
A general note: ELISA stands for enzyme-linked immunosorbent assay.

Experiment [2] has as its system TGFbeta-induced collagen synthesis in L929 cells. The experiment is described as follows: TGFbeta-induced total collagen synthesis in L929 cells (sircol dye). The class given is cell-based. The settings on record: 50 micromole CP1 for 1 hour, then 5 ng/ml Mouse TGFβ2, 72 hours, FIG. 1.
Text: as §1

1 compound from patent publication US10364230B2, “Chromene-2 derivatives and use thereof in the treatment of fibrosis” (ALTAY THERAPEUTICS, INC., priority 2014, dated 2019) can be followed below.

SMILES strings stand for the structures.

In the case of `COc1cc2ccc(=O)oc2cc1OC` [CP1, 6,7-dimethoxy 2H-chromen-2-one], the “effect on TGFβ-induced secreted collagen level” value in experiment [1] is “significantly inhibits”. Also, the “TGFβ-induced collagen level in the presence of CP1, compared to control cells” value in experiment [2] (TGFβ alone induced % 20) stood at 10%. Further, the “inhibition of TGFβ-induced collagen synthesis” value in experiment [2] (total collagen, sircol, absorbance 600 nm) is 50%.
